Patent US5075289A, “9-R-azacyclic erythromycin antibiotics” (priority 1988, dated 1991)
In brackets after ≈: the same amount, converted by molar mass. Where two headings read alike, the source gives them in different places.

Experiments:
[1] = test system: Haemophilus influenzae 1177; assay: In vitro antibacterial activity, agar dilution MIC; assay type: cell-based; details: H. influenzae 1177
Protocol: (§1) The antimicrobial spectra of a number of compounds of the invention were tested by the following method:
(§2) Twelve petri dishes containing successive aqueous dilutions of the test compound mixed with 10 ml of sterilized Brain Heart Infusion agar (Difco 0418-01-5) are prepared. Each plate is inoculated with 1:100 (or 1:10 for slow growing strains, primarily Micrococcus and Streptococcus) dilutions of up to 32 different microorganisms, using a Steers replicator block The inoculated plates are incubated at 35°-37° C. for 20-24 hours. In addition, a control plate, using BHI agar containing no test compound, is prepared and incubated at the beginning and end of each test.
(§3) An additional plate containing a compound having known susceptibility patterns for the organisms being tested and belonging to the same antibiotic class as the test compound is also prepared and incubated as a further control, as well as to provide test-to-test comparability. Erythromycin A was used for this purpose.
(§4) After incubation, each disk is read. The MIC is defined as the lowest concentration of drug yielding no growth, a slight haze, or sparsely isolated colonies on the inoculum spot as compared to the growth control.

[2] = test system: Haemophilus influenzae 1435; assay: In vitro antibacterial activity, agar dilution MIC; assay type: cell-based; details: H. influenzae 1435
Protocol: as §1, §2, §3, §4

[3] = test system: Haemophilus influenzae 503B; assay: In vitro antibacterial activity, agar dilution MIC; assay type: cell-based; details: H. influenzae 503B
Protocol: as §1, §2, §3, §4

[4] = test system: Haemophilus influenzae 504; assay: In vitro antibacterial activity, agar dilution MIC; assay type: cell-based; details: H. influenzae 504
Protocol: as §1, §2, §3, §4

[5] = test system: Haemophilus influenzae 519A; assay: In vitro antibacterial activity, agar dilution MIC; assay type: cell-based; details: H. influenzae 519A
Protocol: as §1, §2, §3, §4

[6] = test system: Haemophilus influenzae 566A; assay: In vitro antibacterial activity, agar dilution MIC; assay type: cell-based; details: H. influenzae 566A
Protocol: as §1, §2, §3, §4

[7] = test system: Haemophilus influenzae 588A; assay: In vitro antibacterial activity, agar dilution MIC; assay type: cell-based; details: H. influenzae 588A
Protocol: as §1, §2, §3, §4

[8] = test system: Haemophilus influenzae 632A; assay: In vitro antibacterial activity, agar dilution MIC; assay type: cell-based; details: H. influenzae 632A
Protocol: as §1, §2, §3, §4

[9] = test system: Haemophilus influenzae 667A; assay: In vitro antibacterial activity, agar dilution MIC; assay type: cell-based; details: H. influenzae 667A
Protocol: as §1, §2, §3, §4

[10] = test system: Haemophilus influenzae 747C; assay: In vitro antibacterial activity, agar dilution MIC; assay type: cell-based; details: H. influenzae 747C
Protocol: as §1, §2, §3, §4

[11] = test system: Haemophilus influenzae 751; assay: In vitro antibacterial activity, agar dilution MIC; assay type: cell-based; details: H. influenzae 751
Protocol: as §1, §2, §3, §4

[12] = test system: Haemophilus influenzae ATCC 10211; assay: In vitro antibacterial activity, agar dilution MIC; assay type: cell-based; details: ATCC10211, H. influenzae ATCC 10211
Protocol: as §1, §2, §3, §4

[13] = test system: Haemophilus influenzae ATCC 19418; assay: In vitro antibacterial activity, agar dilution MIC; assay type: cell-based; details: ATCC19418, H. influenzae ATCC 19418
Protocol: as §1, §2, §3, §4

[14] = test system: Haemophilus influenzae ATCC 9795; assay: In vitro antibacterial activity, agar dilution MIC; assay type: cell-based; details: ATCC9795, H. influenzae ATCC 9795
Protocol: as §1, §2, §3, §4

[15] = test system: Haemophilus influenzae DILL AMP R; assay: In vitro antibacterial activity, agar dilution MIC; assay type: cell-based; details: H. influenzae DILL AMP R
Protocol: as §1, §2, §3, §4

[16] = test system: Haemophilus influenzae SOL AMP R; assay: In vitro antibacterial activity, agar dilution MIC; assay type: cell-based; details: H. influenzae SOL AMP R
Protocol: as §1, §2, §3, §4

[17] = test system: Haemophilus influenzae SPK AMP R; assay: In vitro antibacterial activity, agar dilution MIC; assay type: cell-based; details: H. influenzae SPK AMP R
Protocol: as §1, §2, §3, §4

[18] = test system: Enterococcus faecium ATCC 8043; assay: In vitro antibacterial activity, agar dilution MIC; assay type: cell-based; details: ATCC8043, read-out: MIC
Protocol: as §1, §2, §3, §4

[19] = test system: Escherichia coli DC-2; assay: In vitro antibacterial activity, agar dilution MIC; assay type: cell-based; details: DC2, E. coli DC-2, Brain Heart Infusion agar, 20-24 hours, read-out: MIC
Protocol: as §1, §2, §3, §4

[20] = test system: Escherichia coli H560; assay: In vitro antibacterial activity, agar dilution MIC; assay type: cell-based; details: E. coli H560, Brain Heart Infusion agar, 20-24 hours, read-out: MIC
Protocol: as §1, §2, §3, §4

[21] = test system: Escherichia coli Juhl; assay: In vitro antibacterial activity, agar dilution MIC; assay type: cell-based
Protocol: as §1, §2, §3, §4

[22] = test system: Escherichia coli SS; assay: In vitro antibacterial activity, agar dilution MIC; assay type: cell-based; details: read-out: MIC
Protocol: as §1, §2, §3, §4

[23] = test system: Micrococcus luteus ATCC 4698; assay: In vitro antibacterial activity, agar dilution MIC; assay type: cell-based; details: ATCC4698
Protocol: as §1, §2, §3, §4

[24] = test system: Micrococcus luteus ATCC 9341; assay: In vitro antibacterial activity, agar dilution MIC; assay type: cell-based; details: ATCC9341, M. luteus ATCC 9341, Brain Heart Infusion agar, 20-24 hours, read-out: MIC
Protocol: as §1, §2, §3, §4

[25] = test system: Staphylococcus aureus 45; assay: In vitro antibacterial activity, agar dilution MIC; assay type: cell-based; details: 45
Protocol: as §1, §2, §3, §4

[26] = test system: Staphylococcus aureus A5177; assay: In vitro antibacterial activity, agar dilution MIC; assay type: cell-based; details: S. aureus A5177, Brain Heart Infusion agar, 20-24 hours, read-out: MIC
Protocol: as §1, §2, §3, §4

[27] = test system: Staphylococcus aureus ATCC 6538P; assay: In vitro antibacterial activity, agar dilution MIC; assay type: cell-based; details: ATCC6538P, S. aureus ATCC 6538P, Brain Heart Infusion agar, 35-37° C., 20-24 hours, read-out: MIC
Protocol: as §1, §2, §3, §4

[28] = test system: Staphylococcus aureus CMX 503A; assay: In vitro antibacterial activity, agar dilution MIC; assay type: cell-based; details: CMX503A, S. aureus CMX 503A, Brain Heart Infusion agar, 20-24 hours, read-out: MIC
Protocol: as §1, §2, §3, §4

[29] = test system: Staphylococcus aureus CMX 553; assay: In vitro antibacterial activity, agar dilution MIC; assay type: cell-based; details: CMX553, S. aureus CMX 553, Brain Heart Infusion agar, 20-24 hours, read-out: MIC
Protocol: as §1, §2, §3, §4

[30] = test system: Staphylococcus aureus CMX 686B; assay: In vitro antibacterial activity, agar dilution MIC; assay type: cell-based; details: CMX686B, S. aureus CMX 686B, Brain Heart Infusion agar, 20-24 hours, read-out: MIC
Protocol: as §1, §2, §3, §4

[31] = test system: Staphylococcus epidermidis 3519; assay: In vitro antibacterial activity, agar dilution MIC; assay type: cell-based; details: S. epidermidis 3519, Brain Heart Infusion agar, 20-24 hours, read-out: MIC
Protocol: as §1, §2, §3, §4

[32] = test system: Streptococcus agalactiae CMX 508; assay: In vitro antibacterial activity, agar dilution MIC; assay type: cell-based; details: CMX508, S. agalactiae CMX 508, Brain Heart Infusion agar, 20-24 hours, read-out: MIC
Protocol: as §1, §2, §3, §4

[33] = test system: Streptococcus bovis A5169; assay: In vitro antibacterial activity, agar dilution MIC; assay type: cell-based; details: read-out: MIC
Protocol: as §1, §2, §3, §4

[34] = test system: Streptococcus pyogenes 2548 INDUC; assay: In vitro antibacterial activity, agar dilution MIC; assay type: cell-based; details: S. pyogenes 2548 INDUC, Brain Heart Infusion agar, 20-24 hours, read-out: MIC
Protocol: as §1, §2, §3, §4

[35] = test system: Streptococcus pyogenes 930 CONST; assay: In vitro antibacterial activity, agar dilution MIC; assay type: cell-based; details: 930CONST
Protocol: as §1, §2, §3, §4

[36] = test system: Streptococcus pyogenes EES61; assay: In vitro antibacterial activity, agar dilution MIC; assay type: cell-based; details: S. pyogenes EES61, Brain Heart Infusion agar, 20-24 hours, read-out: MIC
Protocol: as §1, §2, §3, §4

[37] = test system: Staphylococcus aureus 45 RAR 2; assay: microbe, parasite or virus in culture; assay type: cell-based; details: 45RAR2
Protocol: as §1, §2, §3, §4

[38] = test system: Staphylococcus aureus (NCTC 10649); assay: In-vivo mouse protection assay (acute mouse protection test); set-up: species or system Swiss albino mice; details: S. aureus NCTC 10649, dosed 1 and 5 hours post infection, 7 days, read-out: ED50
Protocol: (§5) The acute mouse protection test is conducted on ten mice with each of three levels of drug. Mouse mortality is used to calculate an ED50 value, i.e., the dose of drug required to protect 50% of the test animals against death due to the inoculum challenge.
(§6) The acute mouse protection test is conducted on female, Swiss albino mice, 18-20 grams in weight. […] To check the potency of the inoculum, a titration of the indicated test organism is carried out in control animals. The treatment group of animals is dosed with the test compound at 1 and 5 hours post infection and observed for 7 days. The ED50 values are calculated using the mortality data collected.

[39] = test system: Streptococcus pneumoniae (6303); assay: as above; set-up: species or system Swiss albino mice; details: 168 h
Protocol: as §5, §6

[40] = test system: Streptococcus pyogenes C-203; assay: as above; set-up: species or system Swiss albino mice; details: S. pyogenes C-203, dosed 1 and 5 hours post infection, 7 days, read-out: ED50
Protocol: as §5, §6

CC[C@H]1OC(=O)[C@H](C)[C@@H](O[C@H]2C[C@@](C)(OC)[C@@H](O)[C@H](C)O2)[C@H](C)[C@@H](O[C@@H]2O[C@H](C)C[C@H](N(C)C)[C@H]2O)[C@](C)(O)C[C@@H](C)[C@@H](N2CCC(=O)CC2)[C@H](C)[C@@H](O)[C@]1(C)O [Example 28]
MIC [1]: 0.25 µg/mL (≈ 0.306 µM) | MIC [2]: 0.25 µg/mL (≈ 0.306 µM) | MIC [3]: 0.25 µg/mL (≈ 0.306 µM) | MIC [4]: 1 µg/mL (≈ 1.22 µM) | MIC [5]: 0.25 µg/mL (≈ 0.306 µM) | MIC [6]: 2 µg/mL (≈ 2.45 µM) | MIC [7]: 1 µg/mL (≈ 1.22 µM) | MIC [8]: 2 µg/mL (≈ 2.45 µM) | MIC [9]: 1 µg/mL (≈ 1.22 µM) | MIC [10]: 0.5 µg/mL (≈ 0.612 µM) | MIC [11]: 2 µg/mL (≈ 2.45 µM) | MIC [12]: 5 µg/mL (≈ 6.12 µM) | MIC [13]: 1 µg/mL (≈ 1.22 µM) | MIC [14]: 1 µg/mL (≈ 1.22 µM) | MIC [15]: 0.5 µg/mL (≈ 0.612 µM) | MIC [16]: 0.5 µg/mL (≈ 0.612 µM) | MIC [17]: 0.5 µg/mL (≈ 0.612 µM)

CC[C@H]1OC(=O)[C@H](C)[C@@H](O[C@H]2C[C@@](C)(OC)[C@@H](N)[C@H](C)O2)[C@H](C)[C@@H](O[C@@H]2O[C@H](C)C[C@H](N(C)C)[C@H]2O)[C@](C)(O)C[C@@H](C)[C@@H](N2CCCCC2)[C@H](C)[C@@H](O)[C@]1(C)O [Example 31]
MIC [18]: 0.2 µg/mL (≈ 0.249 µM) | MIC [19]: 3.1 µg/mL (≈ 3.86 µM) | MIC [20]: 1.56 µg/mL (≈ 1.94 µM) | MIC [21]: 6.2 µg/mL (≈ 7.73 µM) | MIC [22]: 0.2 µg/mL (≈ 0.249 µM) | MIC [23]: 0.39 µg/mL (≈ 0.486 µM) | MIC [24]: 0.05 µg/mL (≈ 0.0623 µM) | MIC [25]: 0.39 µg/mL (≈ 0.486 µM) | MIC [26]: 6.2 µg/mL (≈ 7.73 µM) | MIC [27]: 0.78 µg/mL (≈ 0.972 µM) | MIC [28]: 0.78 µg/mL (≈ 0.972 µM) | MIC [29]: 0.39 µg/mL (≈ 0.486 µM) | MIC [30]: 0.39 µg/mL (≈ 0.486 µM) | MIC [31]: 0.78 µg/mL (≈ 0.972 µM) | MIC [32]: 0.05 µg/mL (≈ 0.0623 µM) | MIC [33]: 0.02 µg/mL (≈ 0.0249 µM) | MIC [34]: 6.2 µg/mL (≈ 7.73 µM) | MIC [35]: > 100 µg/mL | MIC [36]: 0.05 µg/mL (≈ 0.0623 µM) | MIC [37]: 0.78 µg/mL (≈ 0.972 µM) | ED50 ([38]; NCTC10649, 168 h, Oral): 125 mg/kg | ED50 ([38]; NCTC10649, sc, 168 h, Subcutaneous): 25.7 mg/kg | ED50 ([39]; po): 13.8 mg/kg | ED50 ([39]; sc, Subcutaneous, S. pneumoniae 6303, dosed 1 and 5 hours post infection, 7 days, read-out: ED50): 1 mg/kg | ED50 ([40]; C203, 168 h, Oral): 27.9 mg/kg | ED50 ([40]; C203, sc, 168 h, Subcutaneous): 0.8 mg/kg
